Test results reported in US9951052B2, “Inhibitors of the renal outer medullary potassium channel” (Merck Sharp & Dohme Corp., priority 2013, dated 2018).
Where a name gives a salt, the structure may show the parent alone.

Molecular target: T1, hROMK (hKir1.1) (Homo sapiens, UniProt P48048)
T1 construct: expressed in transfected cells
T1 sequence (P48048 1-391): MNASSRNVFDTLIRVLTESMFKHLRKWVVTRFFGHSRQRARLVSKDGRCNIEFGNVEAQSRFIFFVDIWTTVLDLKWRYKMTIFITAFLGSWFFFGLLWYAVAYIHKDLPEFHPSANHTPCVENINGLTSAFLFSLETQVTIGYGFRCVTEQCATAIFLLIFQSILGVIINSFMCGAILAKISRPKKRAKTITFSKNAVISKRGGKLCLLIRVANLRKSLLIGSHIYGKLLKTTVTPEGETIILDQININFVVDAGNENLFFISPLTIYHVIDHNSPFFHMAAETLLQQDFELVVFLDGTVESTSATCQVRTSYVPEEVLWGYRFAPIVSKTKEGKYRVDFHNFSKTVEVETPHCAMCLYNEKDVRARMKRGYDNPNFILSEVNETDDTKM
Assay: Thallium Flux Assay (ROMK channel functional thallium flux, FLIPR-Tetra)
Type: cell-based
Conditions: HEK293 cells stably expressing hROMK (hKir1.1); 30 min incubation with compound; HCl salt run where final product was an HCl salt
Procedure: The following Thallium Flux Assay was performed on each of the final product compounds in the Examples. When the final product of an Example was an HCl salt, the salt was run in the Assay.
Cell Culture Conditions—HEK293 cells stably expressing hROMK (hKir1.1) were grown at 37° C. in a 10% CO2 humidified incubator in complete growth media: Dulbecco's Modified Eagle Medium supplemented with non-essential amino acids, Penicillin/Streptomycin/Glutamine, G418 and FBS. At >80% confluency, aspirate the media from the flask and rinse with 10 mL Calcium/Magnesium-free PBS. Add 5 mL of 1× trypsin (prepared in Ca/Mg Free PBS) to T-225 flask and return flask to 37° C./CO2 incubator for 2-3 minutes. To dislodge the cell, gently bang the side of the flask with your hand. Triturate the cells completely and then transfer the cells to 25 mL complete media. Centrifuge at 1,500 rpm for 6 min followed by resuspension in complete growth media and determine cell concentration. For typical re-seeding, 4E6 cells/T-225 flask will attain >80% confluency in 4 days. Under ideal growth conditions and appropriate tissue culture practices, this cell line is stable for 40-45 passages.
FluxOR Kit Components (Invitrogen F10017)
• FluxOR™ Reagent (Component A) • FluxOR™ Assay Buffer (Component B)—10× Concentrate • PowerLoad™ Concentrate (Component C)—100× Concentrate • Probenecid (Component D)—Lyophilized sample is kept at −20° C. Water soluble, 100× after solubilization in 1 mL water. Store at 4° C. • FluxOR™ Chloride-free Buffer (Component E)—5× Concentrate • Potassium sulfate (K2SO4) Concentrate (Component F)—125 mM in water. Store at 4° C. • Thallium sulfate (T12SO4) Concentrate (Component G)—50 mM in water. Store at 4° C. • DMSO (dimethyl sulfoxide, Component H)—1 mL (100%) Reagent Preparation: FluxOR Working Solutions • 1000× FluxOR™ Reagent: Reconstitute a vial of component A in 100 μl DMSO; Mix well; Store 10 μl aliquots at −20° C. • 1× FluxOR™ Assay Buffer: Dilute Component B 10-fold with water; Adjust pH to 7.4 with Hepes/NaOH; Filter and store at 4° C. • Probenecid/Assay Buffer: 100 mL of 1× FluxOR™ Assay Buffer; 1 mL of reconstituted component D; Store at 4° C. • Loading Buffer (per microplate): 10 μl 1000× FluxOR™ Reagent; 100 μl component C; 10 mL Probenecid/Assay Buffer • Compound Buffer (per microplate): 20 mL Probenecid/Assay Buffer; 0.3 mM ouabain (10 mM ouabain in water can be stored in amber bottle/aluminum foil at room temperature); Test compound • 1× FluxOR™ Chloride-Free Buffer: Prepare 1× working solution in water. Can be stored at room temperature • Stimulant Buffer (prepared at 5× final concentration in 1× FluxOR™ Chloride-Free Buffer): 7.5 mM Thallium sulfate and 0.75 mM Potassium sulfate (to give a final assay concentration of 3 mM Thallium/0.3 mM Potassium). Store at 4° C. when not in use.
Assay protocol—The ROMK channel functional thallium flux assay is performed in 384 wells, using the FLIPR-Tetra instrument. HEK-hKir1.1 cells are seeded in Poly-D-Lysine microplates and kept in a 37° C.-10% CO2 incubator overnight. On the day of the experiment, the growth media is replaced with the FluxOR™ reagent loading buffer and incubated, protected from light, at ambient temperature (23-25° C.) for 90 min. The loading buffer is replaced with assay buffer±test compound followed by 30 min incubation at ambient temperature, where the Thallium/Potassium stimulant is added to the microplate.
• 1. Seed HEK-hKir1.1 cells (50 μl at 20,000 cells/well) in 384-well PDL coated Microplates • 2. Allow cells to adhere overnight in humidified 37° C./10% CO2 incubator • 3. Completely remove cell growth media from microplate and replace with 25 μl loading buffer • 4. Incubate Microplate at room temperature, protected from light, for 90 min • 5. Remove loading buffer and replace with 25 μl 1× Assay Buffer±test compound. • 6. Incubate microplate at room temperature, protected from light, for 30 min • 7. […]

SMILES | IC50 [µM]
Cc1c([C@@H](O)CN2CC3C(C2)C3C(=O)Nc2ccns2)ccc2c1COC2=O (stereo partly drawn) [Example 54, 3-[(2R)-2-hydroxy-2-(4-methyl-1-oxo-1,3-dihydro-2-benzofuran-5-yl)ethyl]-N-(isothiazol-5-yl)-3-azabicyclo[3.1.0]hexane-6-carboxamide] | 0.16
Cc1c([C@@H](O)CN2CCC(C(=O)Nc3ccns3)CC2)ccc2c1COC2=O [Example 22, 1-[(2R)-2-hydroxy-2-(4-methyl-1-oxo-1,3-dihydro-2-benzofuran-5-yl)ethyl]-N-(isothiazol-5-yl)piperidine-4-carboxamide] | 0.04
Cc1c([C@@H](O)CN2CCC(N)(C(=O)Nc3ccns3)CC2)ccc2c1COC2=O [Example 46, 4-amino-1-[(2R)-2-hydroxy-2-(4-methyl-1-oxo-1,3-dihydro-2-benzofuran-5-yl)ethyl]-N-(isothiazol-5-yl)piperidine-4-carboxamide hydrochloride] | 0.05
Cc1c([C@@H](O)CN2CCC(C(=O)Nc3nc(C#N)cs3)CC2)ccc2c1COC2=O [Example 29, (R)-N-(4-cyanothiazol-2-yl)-1-(2-hydroxy-2-(4-methyl-1-oxo-1,3-dihydroisobenzofuran-5-yl)ethyl)piperidine-4-carboxamide] | 0.24
Cc1c([C@@H](O)CN2CC3C(C2)C3C(=O)Nc2cnsc2)ccc2c1COC2=O (stereo partly drawn) [Example 58, 3-((R)-2-hydroxy-2-(4-methyl-1-oxo-1,3-dihydroisobenzofuran-5-yl)ethyl)-N-(isothiazol-4-yl)-3-azabicyclo[3.1.0]hexane-6-carboxamide] | 0.28
Cc1c([C@@H](O)CN2CCC(C(=O)Nc3nc(C4CC4)ns3)CC2)ccc2c1COC2=O [Example 32, (R)-N-(3-cyclopropyl-1,2,4-thiadiazol-5-yl)-1-(2-hydroxy-2-(4-methyl-1-oxo-1,3-dihydroisobenzofuran-5-yl)ethyl)piperidine-4-carboxamide] | 0.3
Cc1c(CCN2CCC(C(=O)Nc3ccc(C#N)c4ccccc34)CC2)ccc2c1COC2=O [Example 6, N-(4-cyanonaphthalen-1-yl)-1-(2-(4-methyl-1-oxo-1,3-dihydroisobenzofuran-5-yl)ethyl)piperidine-4-carboxamide] | 0.07
N#Cc1cc(F)c(NC(=O)C2CCN(CCc3ccc4c(c3)COC4=O)CC2)cc1F [Example 14, N-(4-cyano-2,5-difluorophenyl)-1-(2-(1-oxo-1,3-dihydroisobenzofuran-5-yl)ethyl)piperidine-4-carboxamide] | 0.14
Cc1c(CCN2CCC(C(=O)Nc3ccc(C#N)cc3)CC2)ccc2c1COC2=O [Example 3, N-(4-cyanophenyl)-1-(2-(4-methyl-1-oxo-1,3-dihydroisobenzofuran-5-yl)ethyl)piperidine-4-carboxamide] | 0.14
Cc1cc(NC(=O)C2CCN(C[C@H](O)c3ccc4c(c3C)COC4=O)CC2)sn1 [Example 36, (R)-1-(2-hydroxy-2-(4-methyl-1-oxo-1,3-dihydroisobenzofuran-5-yl)ethyl)-N-(3-methylisothiazol-5-yl)piperidine-4-carboxamide] | 0.12
N#Cc1cc(NC(=O)C2CCN(CCc3ccc4c(c3)COC4=O)CC2)ccc1Cl [Example 16, N-(4-chloro-3-cyanophenyl)-1-(2-(1-oxo-1,3-dihydroisobenzofuran-5-yl)ethyl)piperidine-4-carboxamide] | 0.26
CCN(C(=O)C1CCN(C[C@H](O)c2ccc3c(c2C)COC3=O)CC1)c1ccns1 [Example 43, (R)-N-ethyl-1-(2-hydroxy-2-(4-methyl-1-oxo-1,3-dihydroisobenzofuran-5-yl)ethyl)-N-(isothiazol-5-yl)piperidine-4-carboxamide] | 0.05
Cc1c(CCN2CCC(C(=O)Nc3cc(C#N)ccc3F)CC2)ccc2c1COC2=O [Example 9, N-(5-cyano-2-fluorophenyl)-1-(2-(4-methyl-1-oxo-1,3-dihydroisobenzofuran-5-yl)ethyl)piperidine-4-carboxamide] | 0.25
Cc1nsc(N(C)C(=O)C2C3CN(C[C@H](O)c4ccc5c(c4C)COC5=O)CC32)n1 (stereo partly drawn) [Example 62, 3-((R)-2-hydroxy-2-(4-methyl-1-oxo-1,3-dihydroisobenzofuran-5-yl)ethyl)-N-methyl-N-(3-methyl-1,2,4-thiadiazol-5-yl)-3-azabicyclo[3.1.0]hexane-6-carboxamide] | 0.17
Cc1c([C@@H](O)CN2CCC(C(=O)Nc3cnoc3)CC2)ccc2c1COC2=O [Example 27, (R)-1-(2-hydroxy-2-(4-methyl-1-oxo-1,3-dihydroisobenzofuran-5-yl)ethyl)-N-(isoxazol-4-yl)piperidine-4-carboxamide] | 0.14
Cc1c([C@@H](O)CN2CCC(C(=O)Nc3cncc(F)c3)CC2)ccc2c1COC2=O [Example 34, (R)-N-(5-fluoropyridin-3-yl)-1-(2-hydroxy-2-(4-methyl-1-oxo-1,3-dihydroisobenzofuran-5-yl)ethyl)piperidine-4-carboxamide] | 0.34
Cc1c(CCN2CCC(C(=O)Nc3ccc(C#N)nc3)CC2)ccc2c1COC2=O [Example 4, N-(6-cyanopyridin-3-yl)-1-(2-(4-methyl-1-oxo-1,3-dihydroisobenzofuran-5-yl)ethyl)piperidine-4-carboxamide] | 0.21
Cc1cc(C#N)ccc1NC(=O)C1CCN(CCc2ccc3c(c2C)COC3=O)CC1 [Example 8, N-(4-cyano-2-methylphenyl)-1-(2-(4-methyl-1-oxo-1,3-dihydroisobenzofuran-5-yl)ethyl)piperidine-4-carboxamide] | 0.1
Cc1c([C@@H](O)CN2CCC(C(=O)Nc3ccc(-c4csnn4)cc3)CC2)ccc2c1COC2=O [Example 33, (R)-N-(4-(1,2,3-thiadiazol-4-yl)phenyl)-1-(2-hydroxy-2-(4-methyl-1-oxo-1,3-dihydroisobenzofuran-5-yl)ethyl)piperidine-4-carboxamide] | 0.17
Cc1c([C@@H](O)CN2CCC(F)(C(=O)Nc3cnsc3)CC2)ccc2c1COC2=O [Example 50, (R)-4-fluoro-1-(2-hydroxy-2-(4-methyl-1-oxo-1,3-dihydroisobenzofuran-5-yl)ethyl)-N-(isothiazol-4-yl)piperidine-4-carboxamide] | 0.37
Cc1nsc(NC(=O)C2CCN(C[C@H](O)c3ccc4c(c3C)COC4=O)CC2)n1 [Example 31, (R)-1-(2-hydroxy-2-(4-methyl-1-oxo-1,3-dihydroisobenzofuran-5-yl)ethyl)-N-(3-methyl-1,2,4-thiadiazol-5-yl)piperidine-4-carboxamide] | 0.16
Cc1cc(NC(=O)C2(F)CCN(C[C@H](O)c3ccc4c(c3C)COC4=O)CC2)sn1 [Example 48, (R)-4-fluoro-1-(2-hydroxy-2-(4-methyl-1-oxo-1,3-dihydroisobenzofuran-5-yl)ethyl)-N-(3-methylisothiazol-5-yl)piperidine-4-carboxamide] | 0.04
